One data set deals with RWPE-1 cells. The experiment in a line: BSO pretreatment plus 2-63, MTT viability, RWPE-1 cells. To be noted: BSO 100 μM plus 2-63 5 μM, 24 h.
Another data set concerns Hsp90, Hsp70, HO-1. The experiment in a line: Western blotting of Hsp90, Hsp70 and HO-1 in VCaP cells. The data set is classed as cell-based. The procedure:
(§1) Western Blotting. […] Proteins in cell lysates (40 μg) were separated using electrophoresis on SDS-PAGE and transferred onto PVDF (polyvinylidenedifluoride) membranes. Membranes were blocked in 5% fat-free milk followed by incubation with primary antibodies overnight at 4° C., and the secondary horseradish peroxidase-conjugated anti-rabbit or anti-mouse antibodies. The blots were developed in the Enhanced Chemiluminescence mixture and detected by ImageQuant™ LAS 4000 imaging system (GE). Density of protein bonds were calculated and analyzed by using imageJ software downloaded from the National Institute of Health website.
A general note: Immunoblotting shows a protein as a band on a membrane.

Data set [1] in a line: Polarity/water solubility by retention on C18 reversed-phase HPLC. In kind it is physicochemical. The conditions noted are these: shorter retention time on C18 reversed-phase HPLC column. The procedure:
(§2) NAC conjugate 2-63 gradually releases free ITC 12b under physiological condition. The NAC conjugate of ITC could reversibly form free ITCs in aqueous solution (Zhang, Y., Carcinogenesis 2012, 33, 2-9). To test this possibility on the setting of ITC-ARi, 2-63 (50 μM) was dissolved in PBS at physiological pH (7.4), and its decomposition was monitored at 37° C. using HPLC. […] 2-63, therefore, can be viewed as a more water-soluble prodrug of 12b when it is used in cell culture or administrated in vivo. This NAC conjugation approach avoids acute/instant electrophilic insult and can constrain the concentration of electrophilic ITC within certain levels. Since non-cancerous cells usually have a larger GSH/antioxidant pool to neutralize electrophilic/oxidative attack (Trachootham, et al., Cancer Cell 2006, 10, 241-252), different tolerability to 2-63 could be seen between cancerous and noncancerous cells.

The next data set concerns VCaP cells. The experiment in a line: MTT viability assay, VCaP cells. In kind it is cell-based. The conditions noted are these: Homo sapiens, VCaP, 72 h, read-out: IC50, viability of VCaP cells. An excerpt: Biological Characterization. ITC-ARi hybrid drugs effectively reduce the viability of PCa cells. By using an MTT assay, it was first examined if the newly synthesized hybrid drugs affect the viability of CRPC-relevant PCa cells. PCa VCaP cells naturally express abundant wild type FL AR as well as AR splice variants (e.g., AR-V7). These cells were, therefore, used as one of the cell culture models in this work to investigate the drug-caused viability loss and AR downregulation.
In general terms: Tetrazolium dyes change colour on reduction, which living cells bring about.

Data set [2] has as its system AR, AR-V7, c-Myc, HO-1, Hsp70. The data set is described as follows: Western blotting under BSO combination, VCaP cells. In kind it is cell-based. To be noted: VCaP, 2-63 2.5 μM plus BSO 100 μM. On the procedure: It was first investigated if iron chelators or antioxidants could rescue the viability of drug combination-treated cells. […] HO-1 catalyzes the decomposition of heme into carbon monoxide, biliverdin, and Fe^2+. […] Both Fer-1 and the lipophilic antioxidant α-Toc can effectively scavenge radicals in phosphatidylcholine lipid bilayers and break the redox cycle that generates lipid hydroperoxide.
as §1

A short description of data set [3]: 2-63 releases 12b in aqueous buffer (HPLC). The data set is classed as physicochemical. The conditions noted are these: PBS buffer; 2-63 50 μM, PBS pH 7.4, 5% acetonitrile, 37° C., from HPLC peak area; read-out: half-life of 2-63 (decomposition, release of free ITC 12b) (converted). On the procedure:
as §2
2-63 releases 12b in aqueous buffer. Samples for HPLC analysis were prepared by diluting the stock solution (50 mM in DMSO) of 2-63 in PBS buffer (10 mM, pH 7.4) containing 5% acetonitrile. The sample was immediately analyzed right after dilution. The aliquot of incubated samples (37° C.) was analyzed at indicated time points. A linear plot of the log (peak area) versus incubation time was generated to determine the half-life (T1/2) of decomposition. […]

We go through one compound from US12133846B2, “Electrophilic androgen receptor (AR) antagonists for AR downregulation and ferroptosis induction in cancer cells” (priority 2019, dated 2024).

Usually IC50 stands for the concentration needed to halve the response being measured. A word on the half-life: it is how long it takes for the measured level to halve.

Protocol for RWPE-1 cells: Cell viability was then assessed using an MTT assay.
PCa cells (6×10^3 cells/well) were seeded into 96-well plates overnight and then treated with indicated compounds at indicated concentrations and time durations. The MTT (3-(4, 5-Dimethylthiazol-2-yl)-2,5-diphenyltetrazolium bromide) assay was performed according to the standard protocol. Briefly, MTT (0.5 mg/mL) was incubated with cells at 37° C. for 3 hours. Supernatant was removed, followed by the addition of dimethyl DMSO (100 μl). After incubation for 30 minutes at 37° C., absorbance was read at 570 nm on a microplate reader.

With `CC(=O)N[C@H](CSC(=S)NCCCCCCc1ccc(N2C(=S)N(c3ccc(C#N)c(C(F)(F)F)c3)C(=O)C2(C)C)cn1)C(=O)O` [2-63, N-acetyl-S-((6-(5-(3-(4-cyano-3-(trifluoromethyl)phenyl)-5,5-dimethyl-4-oxo-2-thioxoimidazolidin-1-yl)pyridine-2-yl)hexyl)carbamothioyl)-D-cysteine], in the data set on RWPE-1 cells, the “viability of RWPE-1 cells remaining” value is “Eighty”. Besides, the “Hsp70 and HO-1 in time course” value in the data set with Hsp90, Hsp70, HO-1 (10 μM, 12 h time course) was “notably increased after 6 h”. In the data set with Hsp90, Hsp70, HO-1 (16 h, 5 and 15 μM), the HO-1 protein level entry was “dose-dependently upregulated”, the Hsp70 protein level result was “significantly induced” and the Hsp90 protein level result was “did not change”. Moreover, in data set [1], the “polarity/water solubility of 2-63 over 12b” value was “greatly improves”. Besides, the IC50 in the data set with VCaP cells turned out to be 6.09 µM. For the same compound, in data set [2], the “AR/AR-V7, c-Myc and HO-1 expression versus individual drugs” value was “more effectively downregulated AR/AR-V7 and c-Myc and upregulated the cellular stress marker HO-1”. The half-life at 50 μM in data set [3] is 3.4 h.
